Experimental data from PubChem BioAssay (NCI).
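Where inhibition never reached the appropriate level, the endpoint shown equals the highest concentration tested. Otherwise, values were interpolated linearly from a five-concentration, 48-hour dose response in 96-well plates. TGI: total growth inhibition.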

Legend:
Test in all cases: growth of human tumour cells (NCI), 48 h
ACHN renal = system: ACHN renal
OVCAR-8 ovarian = system: OVCAR-8 ovarian
OVCAR-5 ovarian = system: OVCAR-5 ovarian
HOP-92 NSCLC = system: HOP-92 NSCLC
RXF 393 renal = system: RXF 393 renal
HS 578T breast = system: HS 578T breast
TK-10 renal = system: TK-10 renal
COLO 205 colon = system: COLO 205 colon
NCI/ADR-RES ovarian = system: NCI/ADR-RES ovarian
RPMI-8226 leukemia = system: RPMI-8226 leukemia
SK-OV-3 ovarian = system: SK-OV-3 ovarian
MDA-MB-435 = system: MDA-MB-435
786-0 renal = system: 786-0 renal
SR leukemia = system: SR leukemia
SF-295 CNS = system: SF-295 CNS
SF-539 CNS = system: SF-539 CNS
M14 melanoma = system: M14 melanoma
KM12 colon = system: KM12 colon
MOLT-4 leukemia = system: MOLT-4 leukemia
HCC-2998 colon = system: HCC-2998 colon
CCRF-CEM leukemia = system: CCRF-CEM leukemia
SK-MEL-2 melanoma = system: SK-MEL-2 melanoma
LOX IMVI melanoma = system: LOX IMVI melanoma
SF-268 CNS = system: SF-268 CNS
U251 CNS = system: U251 CNS
OVCAR-3 ovarian = system: OVCAR-3 ovarian
NCI-H522 lung = system: NCI-H522 lung
T-47D breast = system: T-47D breast
SK-MEL-28 melanoma = system: SK-MEL-28 melanoma
PC-3 prostate = system: PC-3 prostate
SNB-19 CNS = system: SNB-19 CNS
HCT-116 colon = system: HCT-116 colon
OVCAR-4 ovarian = system: OVCAR-4 ovarian
SK-MEL-5 melanoma = system: SK-MEL-5 melanoma
UACC-62 melanoma = system: UACC-62 melanoma
MDA-N = system: MDA-N
EKVX NSCLC = system: EKVX NSCLC
HL-60(TB) leukemia = system: HL-60(TB) leukemia
A498 renal = system: A498 renal
BT-549 breast = system: BT-549 breast
NCI-H23 lung = system: NCI-H23 lung
SW-620 colon = system: SW-620 colon
HT29 colon = system: HT29 colon
HCT-15 colon = system: HCT-15 colon
SN12C renal = system: SN12C renal
NCI-H460 lung = system: NCI-H460 lung
CAKI-1 renal = system: CAKI-1 renal
A549 NSCLC = system: A549 NSCLC
K-562 leukemia = system: K-562 leukemia
UO-31 renal = system: UO-31 renal
MDA-MB-231 breast = system: MDA-MB-231 breast
IGROV1 ovarian = system: IGROV1 ovarian
UACC-257 melanoma = system: UACC-257 melanoma
HOP-62 NSCLC = system: HOP-62 NSCLC
DU-145 prostate = system: DU-145 prostate
MALME-3M melanoma = system: MALME-3M melanoma
MCF7 breast = system: MCF7 breast
NCI-H226 lung = system: NCI-H226 lung
SNB-75 CNS = system: SNB-75 CNS

CN1CC2=C(OC(N)=C(C#N)C2c2cccs2)/C(=C/c2cccs2)C1 (stereo unspecified)
TGI (ACHN renal): 38.7 µM | TGI (OVCAR-8 ovarian): > 67.7 µM | TGI (OVCAR-5 ovarian): > 100 µM | TGI (HOP-92 NSCLC): > 100 µM | TGI (RXF 393 renal): 48.5 µM | TGI (HS 578T breast): > 100 µM | TGI (TK-10 renal): > 100 µM | TGI (COLO 205 colon): > 100 µM | TGI (NCI/ADR-RES ovarian): 23.6 µM | TGI (RPMI-8226 leukemia): > 42.7 µM | TGI (SK-OV-3 ovarian): > 100 µM | TGI (MDA-MB-435): 22.5 µM | TGI (786-0 renal): > 69.9 µM | TGI (SR leukemia): > 100 µM | TGI (SF-295 CNS): > 100 µM | TGI (SF-539 CNS): > 100 µM | TGI (M14 melanoma): > 55.9 µM | TGI (KM12 colon): > 78.9 µM | TGI (MOLT-4 leukemia): > 26.5 µM | TGI (HCC-2998 colon): > 100 µM | TGI (CCRF-CEM leukemia): > 29 µM | TGI (SK-MEL-2 melanoma): > 64.4 µM | TGI (LOX IMVI melanoma): > 63.3 µM | TGI (SF-268 CNS): > 31.1 µM | TGI (U251 CNS): > 100 µM | TGI (OVCAR-3 ovarian): 56.5 µM | TGI (NCI-H522 lung): > 53 µM | TGI (T-47D breast): 1.47 µM | TGI (SK-MEL-28 melanoma): > 100 µM | TGI (PC-3 prostate): > 60.5 µM | TGI (SNB-19 CNS): > 100 µM | TGI (HCT-116 colon): > 49.3 µM | TGI (OVCAR-4 ovarian): 39.4 µM | TGI (SK-MEL-5 melanoma): 14.4 µM | TGI (UACC-62 melanoma): > 100 µM | TGI (MDA-N): > 47.3 µM | TGI (EKVX NSCLC): > 60.2 µM | TGI (HL-60(TB) leukemia): 12 µM | TGI (A498 renal): > 100 µM | TGI (BT-549 breast): > 100 µM | TGI (NCI-H23 lung): > 100 µM | TGI (SW-620 colon): > 100 µM | TGI (HT29 colon): > 78.3 µM | TGI (HCT-15 colon): > 100 µM | TGI (SN12C renal): > 100 µM | TGI (NCI-H460 lung): 58.9 µM | TGI (CAKI-1 renal): > 100 µM | TGI (A549 NSCLC): > 75.2 µM | TGI (K-562 leukemia): > 100 µM | TGI (UO-31 renal): > 84.8 µM | TGI (MDA-MB-231 breast): > 100 µM | TGI (IGROV1 ovarian): > 65.8 µM | TGI (UACC-257 melanoma): > 100 µM | TGI (HOP-62 NSCLC): 51.9 µM | TGI (DU-145 prostate): 81.7 µM | TGI (MALME-3M melanoma): 38.4 µM | TGI (MCF7 breast): 8.33 µM | TGI (NCI-H226 lung): > 100 µM

COc1cccc(N2C(=O)C3c4[nH]c5ccccc5c4C4c5ccccc5CCC4C3C2=O)c1 (stereo unspecified)
TGI (ACHN renal): > 10 µM | TGI (OVCAR-8 ovarian): 9.9 µM | TGI (OVCAR-5 ovarian): > 10 µM | TGI (HOP-92 NSCLC): > 10 µM | TGI (RXF 393 renal): > 10 µM | TGI (HS 578T breast): 7.06 µM | TGI (TK-10 renal): > 10 µM | TGI (COLO 205 colon): > 10 µM | TGI (NCI/ADR-RES ovarian): > 10 µM | TGI (RPMI-8226 leukemia): > 10 µM | TGI (SK-OV-3 ovarian): > 7.28 µM | TGI (MDA-MB-435): > 10 µM | TGI (786-0 renal): > 8.35 µM | TGI (SR leukemia): > 4.01 µM | TGI (SF-295 CNS): > 10 µM | TGI (SF-539 CNS): 6.11 µM | TGI (M14 melanoma): > 10 µM | TGI (KM12 colon): > 10 µM | TGI (MOLT-4 leukemia): > 10 µM | TGI (HCC-2998 colon): > 10 µM | TGI (CCRF-CEM leukemia): > 10 µM | TGI (SK-MEL-2 melanoma): > 10 µM | TGI (LOX IMVI melanoma): > 10 µM | TGI (SF-268 CNS): > 10 µM | TGI (U251 CNS): > 8.12 µM | TGI (OVCAR-3 ovarian): > 10 µM | TGI (NCI-H522 lung): > 10 µM | TGI (T-47D breast): > 10 µM | TGI (SK-MEL-28 melanoma): > 10 µM | TGI (PC-3 prostate): > 10 µM | TGI (SNB-19 CNS): > 10 µM | TGI (HCT-116 colon): > 10 µM | TGI (OVCAR-4 ovarian): > 7.12 µM | TGI (SK-MEL-5 melanoma): > 10 µM | TGI (UACC-62 melanoma): > 10 µM | TGI (MDA-N): > 10 µM | TGI (EKVX NSCLC): > 10 µM | TGI (HL-60(TB) leukemia): > 10 µM | TGI (A498 renal): 8.53 µM | TGI (BT-549 breast): > 10 µM | TGI (NCI-H23 lung): > 10 µM | TGI (SW-620 colon): > 10 µM | TGI (HT29 colon): > 10 µM | TGI (HCT-15 colon): > 10 µM | TGI (SN12C renal): > 10 µM | TGI (SNB-75 CNS): 6.3 µM | TGI (NCI-H460 lung): > 10 µM | TGI (CAKI-1 renal): > 10 µM | TGI (A549 NSCLC): > 10 µM | TGI (K-562 leukemia): > 10 µM | TGI (UO-31 renal): > 10 µM | TGI (MDA-MB-231 breast): > 10 µM | TGI (IGROV1 ovarian): > 10 µM | TGI (HOP-62 NSCLC): 6.81 µM | TGI (DU-145 prostate): > 10 µM | TGI (MALME-3M melanoma): > 9.13 µM | TGI (MCF7 breast): > 10 µM | TGI (NCI-H226 lung): > 7.52 µM
